Laboratory results as given in BigSolDB 2.1.

O=C1Nc2ccccc2C1=O
Details	solubility (mole fraction)
in PEG-400, 298.15 K	0.0985
in PEG-400, 308.15 K	0.109
in PEG-400, 318.15 K	0.121
in PEG-400, 328.15 K	0.132
in PEG-400, 338.15 K	0.144

solubility (mole fraction)
Details	in ethanol	in ethyl acetate	in ethylene glycol	in isopropanol	in propylene glycol	in sec-butanol	in transcutol	in water
298.15 K	0.00409	0.00568	0.00754	0.00419	0.00673	0.00516	0.523	5.14e-05
308.15 K	0.00506	0.00738	0.0092	0.00545	0.00827	0.00596	0.539	8.08e-05
318.15 K	0.0065	0.00926	0.011	0.00694	0.01	0.0071	0.561	0.000113
328.15 K	0.00755	0.0111	0.0127	0.00867	0.0112	0.00814	0.581	0.000152
338.15 K	0.00897	0.013	0.0146	0.0105	0.0133	0.00899	0.598	0.000202
